Experimental data from ChEMBL document CHEMBL1201862, “PubChem BioAssay data set” (2004).
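All cell lines were grown in 96-well plates and treated with compound for 48 hours. GI50 marks 50% less growth.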 Active and inactive are the calls of the source. Rule as the data show it: active = GI50 up to about 1.1 µM and inactive = higher.

Key:
Assay in all cases: growth of human tumour cells (NCI), 48 h
786-0 = system: 786-0
A498 = system: A498
A549 = system: A549
ACHN = system: ACHN
BT-549 = system: BT-549
CAKI-1 = system: CAKI-1
COLO 205 = system: COLO 205
DU-145 = system: DU-145
EKVX = system: EKVX
HCC 2998 = system: HCC 2998
HCT-116 = system: HCT-116
HCT-15 = system: HCT-15
HL-60 = system: HL-60
HOP-62 = system: HOP-62
HT-29 = system: HT-29
Hs-578T = system: Hs-578T
IGROV-1 = system: IGROV-1
KM12 = system: KM12
LOX IMVI = system: LOX IMVI
M14 = system: M14
MCF7 = system: MCF7
MDA-MB-231 = system: MDA-MB-231
MDA-MB-435 = system: MDA-MB-435
MDA-N = system: MDA-N
Malme-3M = system: Malme-3M
NCI-H226 = system: NCI-H226
NCI-H23 = system: NCI-H23
NCI-H460 = system: NCI-H460
NCI-H522 = system: NCI-H522
NCI/ADR-RES = system: NCI/ADR-RES
OVCAR-4 = system: OVCAR-4
OVCAR-5 = system: OVCAR-5
OVCAR-8 = system: OVCAR-8
PC-3 = system: PC-3
RXF 393 = system: RXF 393
SF-268 = system: SF-268
SF-295 = system: SF-295
SF-539 = system: SF-539
SK-MEL-28 = system: SK-MEL-28
SK-MEL-2 = system: SK-MEL-2
SK-MEL-5 = system: SK-MEL-5
SK-OV-3 = system: SK-OV-3
SN12C = system: SN12C
SNB-19 = system: SNB-19
SNB-75 = system: SNB-75
SW-620 = system: SW-620
T47D = system: T47D
TK-10 = system: TK-10
U-251 = system: U-251
UACC-257 = system: UACC-257
UACC-62 = system: UACC-62
UO-31 = system: UO-31
CCRF-CEM = system: CCRF-CEM
HOP-92 = system: HOP-92
K562 = system: K562
MOLT-4 = system: MOLT-4
OVCAR-3 = system: OVCAR-3
RPMI-8226 = system: RPMI-8226

CC1=C(C)C(=O)C(C2=CC(=O)c3ccccc3C2=O)=C(C2=CC(=O)c3ccccc3C2=O)C1=O
GI50 (786-0): 7.46 µM (inactive) | GI50 (A498): 23.4 µM (inactive) | GI50 (A549): 19.4 µM (inactive) | GI50 (ACHN): 3.27 µM (inactive) | GI50 (BT-549): 18.7 µM (inactive) | GI50 (CAKI-1): 2.95 µM (inactive) | GI50 (COLO 205): 1.99 µM (inactive) | GI50 (DU-145): 3.21 µM (inactive) | GI50 (EKVX): 19.3 µM (inactive) | GI50 (HCC 2998): 6.95 µM (inactive) | GI50 (HCT-116): 3.6 µM (inactive) | GI50 (HCT-15): 0.646 µM | GI50 (HL-60): 0.234 µM (active) | GI50 (HOP-62): 12.4 µM (inactive) | GI50 (HT-29): 0.684 µM (active) | GI50 (Hs-578T): 3.62 µM (inactive) | GI50 (IGROV-1): 7.31 µM (inactive) | GI50 (KM12): 10.4 µM (inactive) | GI50 (LOX IMVI): 1.39 µM (inactive) | GI50 (M14): 8.49 µM (inactive) | GI50 (MCF7): 1.88 µM (inactive) | GI50 (MDA-MB-231): 4.52 µM (inactive) | GI50 (MDA-MB-435): 0.352 µM (active) | GI50 (MDA-N): 0.82 µM (active) | GI50 (Malme-3M): 0.514 µM (active) | GI50 (NCI-H226): 13.1 µM (inactive) | GI50 (NCI-H23): 8.13 µM (inactive) | GI50 (NCI-H460): 10.1 µM (inactive) | GI50 (NCI-H522): 2.85 µM (inactive) | GI50 (NCI/ADR-RES): 1.68 µM (inactive) | GI50 (OVCAR-4): 5.04 µM (inactive) | GI50 (OVCAR-5): 24.3 µM (inactive) | GI50 (OVCAR-8): 3.64 µM (inactive) | GI50 (PC-3): 5.74 µM (inactive) | GI50 (RXF 393): 2.52 µM (inactive) | GI50 (SF-268): 8.15 µM (inactive) | GI50 (SF-295): 12.3 µM (inactive) | GI50 (SF-539): 6.35 µM (inactive) | GI50 (SK-MEL-28): 7.62 µM (inactive) | GI50 (SK-MEL-2): 5.9 µM (inactive) | GI50 (SK-MEL-5): 1.4 µM (inactive) | GI50 (SK-OV-3): 20.2 µM (inactive) | GI50 (SN12C): 2.61 µM (inactive) | GI50 (SNB-19): 4.54 µM (inactive) | GI50 (SNB-75): 13.2 µM (inactive) | GI50 (SW-620): 2.79 µM (inactive) | GI50 (T47D): 6.95 µM (inactive) | GI50 (TK-10): 3.38 µM (inactive) | GI50 (U-251): 6.43 µM (inactive) | GI50 (UACC-257): 8.2 µM (inactive) | GI50 (UACC-62): 7.19 µM (inactive) | GI50 (UO-31): 2.84 µM (inactive)

Fc1ccc(C(OCCN2CCC3CCC(C2)N3CCCc2ccccc2)c2ccc(F)cc2)cc1 (centres undefined)
GI50 (786-0): 2.41 µM (inactive) | GI50 (A498): 3.02 µM (inactive) | GI50 (A549): 6.15 µM (inactive) | GI50 (ACHN): 5.6 µM (inactive) | GI50 (BT-549): 8.89 µM (inactive) | GI50 (CAKI-1): 4.86 µM (inactive) | GI50 (CCRF-CEM): 3.01 µM (inactive) | GI50 (COLO 205): 1.37 µM (inactive) | GI50 (DU-145): 8 µM (inactive) | GI50 (EKVX): 3.82 µM (inactive) | GI50 (HCC 2998): 2.08 µM (inactive) | GI50 (HCT-116): 2.65 µM (inactive) | GI50 (HCT-15): 3.76 µM | GI50 (HL-60): 2.12 µM (inactive) | GI50 (HOP-62): 7.38 µM (inactive) | GI50 (HOP-92): 5.45 µM (inactive) | GI50 (HT-29): 3.3 µM (inactive) | GI50 (Hs-578T): 4.58 µM (inactive) | GI50 (IGROV-1): 4.97 µM (inactive) | GI50 (K562): 2.05 µM (inactive) | GI50 (KM12): 3.11 µM (inactive) | GI50 (LOX IMVI): 3.83 µM (inactive) | GI50 (M14): 2.1 µM (inactive) | GI50 (MCF7): 3.74 µM (inactive) | GI50 (MDA-MB-231): 3.87 µM (inactive) | GI50 (MDA-MB-435): 2.61 µM (inactive) | GI50 (MDA-N): 3.27 µM (inactive) | GI50 (MOLT-4): 2.58 µM (inactive) | GI50 (Malme-3M): 2.29 µM (inactive) | GI50 (NCI-H226): 3.94 µM (inactive) | GI50 (NCI-H23): 4.1 µM (inactive) | GI50 (NCI-H460): 2.58 µM (inactive) | GI50 (NCI-H522): 3.35 µM (inactive) | GI50 (NCI/ADR-RES): 3.62 µM (inactive) | GI50 (OVCAR-3): 3.55 µM (inactive) | GI50 (OVCAR-4): 5.28 µM (inactive) | GI50 (OVCAR-5): 6.71 µM (inactive) | GI50 (OVCAR-8): 2.24 µM (inactive) | GI50 (PC-3): 2.98 µM (inactive) | GI50 (RPMI-8226): 2.48 µM (inactive) | GI50 (SF-268): 6.62 µM (inactive) | GI50 (SF-295): 2.77 µM (inactive) | GI50 (SF-539): 1.35 µM (inactive) | GI50 (SK-MEL-28): 2.52 µM (inactive) | GI50 (SK-MEL-2): 3.48 µM (inactive) | GI50 (SK-MEL-5): 1.76 µM (inactive) | GI50 (SK-OV-3): 10.4 µM (inactive) | GI50 (SN12C): 3.57 µM (inactive) | GI50 (SNB-19): 10.1 µM (inactive) | GI50 (SNB-75): 2.4 µM (inactive) | GI50 (SW-620): 3.64 µM (inactive) | GI50 (T47D): 2.16 µM (inactive) | GI50 (TK-10): 4.43 µM (inactive) | GI50 (U-251): 4.33 µM (inactive) | GI50 (UACC-257): 2.92 µM (inactive) | GI50 (UACC-62): 5.75 µM (inactive) | GI50 (UO-31): 5.56 µM (inactive)

CC(C#N)NCc1ccc(C(C)NC(C)C#N)cc1 (centres undefined)
GI50 (786-0): > 100 µM (inactive) | GI50 (A498): > 100 µM (inactive) | GI50 (A549): > 100 µM (inactive) | GI50 (ACHN): > 100 µM (inactive) | GI50 (BT-549): > 100 µM (inactive) | GI50 (CAKI-1): > 100 µM (inactive) | GI50 (CCRF-CEM): > 100 µM (inactive) | GI50 (COLO 205): > 100 µM (inactive) | GI50 (DU-145): > 100 µM (inactive) | GI50 (EKVX): > 100 µM (inactive) | GI50 (HCC 2998): > 100 µM (inactive) | GI50 (HCT-116): > 100 µM (inactive) | GI50 (HCT-15): > 100 µM | GI50 (HL-60): > 100 µM (inactive) | GI50 (HOP-92): > 100 µM (inactive) | GI50 (HT-29): > 100 µM (inactive) | GI50 (Hs-578T): > 100 µM (inactive) | GI50 (IGROV-1): > 100 µM (inactive) | GI50 (K562): > 100 µM (inactive) | GI50 (KM12): > 100 µM (inactive) | GI50 (LOX IMVI): > 100 µM (inactive) | GI50 (M14): > 100 µM (inactive) | GI50 (MCF7): > 100 µM (inactive) | GI50 (MDA-MB-231): > 100 µM (inactive) | GI50 (MDA-MB-435): > 100 µM (inactive) | GI50 (MDA-N): > 100 µM (inactive) | GI50 (MOLT-4): > 100 µM (inactive) | GI50 (Malme-3M): 96.6 µM (inactive) | GI50 (NCI-H226): > 100 µM (inactive) | GI50 (NCI-H23): > 100 µM (inactive) | GI50 (NCI-H460): > 100 µM (inactive) | GI50 (NCI-H522): > 100 µM (inactive) | GI50 (NCI/ADR-RES): > 100 µM (inactive) | GI50 (OVCAR-3): > 100 µM (inactive) | GI50 (OVCAR-4): > 100 µM (inactive) | GI50 (OVCAR-5): > 100 µM (inactive) | GI50 (OVCAR-8): > 100 µM (inactive) | GI50 (PC-3): > 100 µM (inactive) | GI50 (RXF 393): > 100 µM (inactive) | GI50 (SF-268): > 100 µM (inactive) | GI50 (SF-295): > 100 µM (inactive) | GI50 (SF-539): > 100 µM (inactive) | GI50 (SK-MEL-28): > 100 µM (inactive) | GI50 (SK-MEL-2): > 100 µM (inactive) | GI50 (SK-MEL-5): > 100 µM (inactive) | GI50 (SK-OV-3): > 100 µM (inactive) | GI50 (SN12C): > 100 µM (inactive) | GI50 (SNB-19): > 100 µM (inactive) | GI50 (SW-620): > 100 µM (inactive) | GI50 (T47D): > 100 µM (inactive) | GI50 (TK-10): > 100 µM (inactive) | GI50 (U-251): > 100 µM (inactive) | GI50 (UACC-257): > 100 µM (inactive) | GI50 (UACC-62): > 100 µM (inactive) | GI50 (UO-31): 93.1 µM (inactive)
